In PubChem BioAssay AID248 (DTP/NCI, 2004):
“And” between values parts separate entries of the source, which are not always exact repeats. Identical values can stand only once. Toxic doses and inconclusive results are not listed. Cut-off read from the data, not from the text of the source: active = T/C of 150% or more; inactive = T/C below 125%.

Test system: L1210 leukemia ip in BDF1 mice, survival T/C
Experiment: NCI In Vivo Anticancer Drug Screen. Data for tumor model L1210 Leukemia (intraperitoneal) in B6D2F1 (BDF1) mice
Conditions: endpoint: mean survival time, higher = longer survival
Outline: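 Read-out is survival time, reported as the treated-group measurement over the vehicle-control measurement.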

[1] = dose: 12.5 mg/kg/injection, schedule: Q04DX003 (ip), vehicle: saline
[2] = dose: 25.0 mg/kg/injection, schedule: Q04DX003 (ip), vehicle: saline
[3] = dose: 100.0 mg/kg/injection, schedule: Q01DX009 (ip), vehicle: Klucel (hydroxypropylcellulose) (HPC)
[4] = dose: 200.0 mg/kg/injection, schedule: Q01DX009 (ip), vehicle: Klucel (hydroxypropylcellulose) (HPC)
[5] = dose: 400.0 mg/kg/injection, schedule: Q01DX009 (ip), vehicle: Klucel (hydroxypropylcellulose) (HPC)
[6] = dose: 100.0 mg/kg/injection, schedule: Q04DX003 (ip), vehicle: saline
[7] = dose: 200.0 mg/kg/injection, schedule: Q04DX003 (ip), vehicle: saline
[8] = dose: 100.0 mg/kg/injection, schedule: Q04DX003 (ip), vehicle: Klucel (hydroxypropylcellulose) (HPC)
[9] = dose: 200.0 mg/kg/injection, schedule: Q04DX003 (ip), vehicle: Klucel (hydroxypropylcellulose) (HPC)
[10] = dose: 400.0 mg/kg/injection, schedule: Q04DX003 (ip), vehicle: Klucel (hydroxypropylcellulose) (HPC)

Measured: T/C

N=C(N)c1ccc(Oc2ccc(-c3cc4ccc(C(=N)N)cc4[nH]3)cc2)cc1
inactive: dose: 1.56 mg/kg/injection, schedule: Q01DX009 (ip), vehicle: saline with Tween-80 90 % of control | dose: 3.12 mg/kg/injection, schedule: Q01DX009 (ip), vehicle: saline with Tween-80 106 % of control | dose: 6.25 mg/kg/injection, schedule: Q04DX003 (ip), vehicle: saline 100 % of control (2×) and 112 % of control | dose: 12.5 mg/kg/injection, schedule: Q01DX009 (ip), vehicle: saline with Tween-80 119 % of control | [1] 112 % of control and 120 % of control and 122 % of control | [2] 112 % of control

CCOc1ccc(OCC)c(NC(=O)Nc2ccc(F)c([N+](=O)[O-])c2)c1
inactive: [3] 101 % of control | [4] 93 % of control | [5] 87 % of control

NC(=S)c1ncc(N)s1
inactive: dose: 100.0 mg/kg/injection, schedule: Q04DX002 (ip), vehicle: saline with Tween-80 92 % of control | dose: 200.0 mg/kg/injection, schedule: Q04DX002 (ip), vehicle: saline with Tween-80 100 % of control | dose: 400.0 mg/kg/injection, schedule: Q04DX002 (ip), vehicle: saline with Tween-80 120 % of control

CC(=O)Nc1ccc(S(=O)(=O)NN)cc1
inactive: dose: 50.0 mg/kg/injection, schedule: Q01DX001 (ip), vehicle: carboxymethylcellulose (CMC) 106 % of control | dose: 100.0 mg/kg/injection, schedule: Q01DX001 (ip), vehicle: carboxymethylcellulose (CMC) 103 % of control | dose: 200.0 mg/kg/injection, schedule: Q01DX001 (ip), vehicle: carboxymethylcellulose (CMC) 92 % of control | dose: 400.0 mg/kg/injection, schedule: Q01DX001 (ip), vehicle: carboxymethylcellulose (CMC) 92 % of control

COc1ccc(OC)c(CBr)c1CBr
inactive: dose: 5.0 mg/kg/injection, schedule: Q01DX001 (ip), vehicle: saline 101 % of control | dose: 10.0 mg/kg/injection, schedule: Q01DX001 (ip), vehicle: saline 98 % of control | dose: 20.0 mg/kg/injection, schedule: Q01DX001 (ip), vehicle: saline 101 % of control | dose: 40.0 mg/kg/injection, schedule: Q01DX001 (ip), vehicle: saline 98 % of control | dose: 80.0 mg/kg/injection, schedule: Q01DX001 (ip), vehicle: saline 104 % of control

CCCc1c(N)nc(=S)[nH]c1C(=O)O
inactive: [3] 102 % of control | [6] 96 % of control | [4] 97 % of control | [7] 119 % of control | [5] 94 % of control

O=P(OCCCl)(OCCCl)C(c1ccccc1)(c1ccccc1)c1ccccc1
inactive: [3] 105 % of control | [4] 96 % of control | [5] 93 % of control

CON=C(c1ccc(N(C)C)cc1)c1ccc(N(C)C)cc1
inactive: dose: 100.0 mg/kg/injection, schedule: Q01DX001 (ip), vehicle: Klucel (hydroxypropylcellulose) (HPC) 104 % of control | [8] 103 % of control | dose: 200.0 mg/kg/injection, schedule: Q01DX001 (ip), vehicle: Klucel (hydroxypropylcellulose) (HPC) 101 % of control | [9] 100 % of control | dose: 400.0 mg/kg/injection, schedule: Q01DX001 (ip), vehicle: Klucel (hydroxypropylcellulose) (HPC) 101 % of control | [10] 92 % of control

O=c1cc(O)ccn1CC(O)c1ccc(Cl)s1 (stereo unspecified)
inactive: dose: 100.0 mg/kg/injection, schedule: Q01DX009 (ip), vehicle: saline with Tween-80 89 % of control | dose: 100.0 mg/kg/injection, schedule: Q04DX003 (ip), vehicle: saline with Tween-80 100 % of control | dose: 200.0 mg/kg/injection, schedule: Q01DX009 (ip), vehicle: saline with Tween-80 88 % of control | dose: 200.0 mg/kg/injection, schedule: Q04DX003 (ip), vehicle: saline with Tween-80 98 % of control | dose: 400.0 mg/kg/injection, schedule: Q01DX009 (ip), vehicle: saline with Tween-80 94 % of control | dose: 400.0 mg/kg/injection, schedule: Q04DX003 (ip), vehicle: saline with Tween-80 99 % of control

O=C(O)c1ccccc1Oc1ccccc1
inactive: dose: 100.0 mg/kg/injection, schedule: Q01DX001 (ip), vehicle: saline with Tween-80 94 % of control | dose: 200.0 mg/kg/injection, schedule: Q01DX001 (ip), vehicle: saline with Tween-80 91 % of control | dose: 400.0 mg/kg/injection, schedule: Q01DX001 (ip), vehicle: saline with Tween-80 91 % of control

CN(C)NCCN1CCN(CCCN2c3ccccc3Sc3ccc(C(F)(F)F)cc32)CC1
inactive: dose: 6.25 mg/kg/injection, schedule: Q01DX009 (ip), vehicle: saline 116 % of control | dose: 12.5 mg/kg/injection, schedule: Q01DX009 (ip), vehicle: saline 89 % of control | [1] 101 % of control | dose: 25.0 mg/kg/injection, schedule: Q01DX009 (ip), vehicle: saline 107 % of control | [2] 104 % of control

c1cncc(C2SCCCS2)c1
inactive: dose: 100.0 mg/kg/injection, schedule: Q04DX002 (ip), vehicle: DMSO 87 % of control | dose: 200.0 mg/kg/injection, schedule: Q04DX002 (ip), vehicle: DMSO 87 % of control

O=C1C=CC(=O)N1c1ccc(Cl)cc1Br
inactive: dose: 5.0 mg/kg/injection, schedule: Q01DX009 (ip), vehicle: saline with Tween-80 91 % of control | dose: 10.0 mg/kg/injection, schedule: Q01DX009 (ip), vehicle: saline with Tween-80 91 % of control | dose: 20.0 mg/kg/injection, schedule: Q01DX009 (ip), vehicle: saline with Tween-80 91 % of control

CC(=O)Oc1cccc2c1C(=O)c1ccccc1C2=O
inactive: dose: 100.0 mg/kg/injection, schedule: Q01DX009 (ip), vehicle: saline 103 % of control | [6] 103 % of control | dose: 200.0 mg/kg/injection, schedule: Q01DX009 (ip), vehicle: saline 103 % of control | [7] 97 % of control | dose: 400.0 mg/kg/injection, schedule: Q01DX009 (ip), vehicle: saline 104 % of control | dose: 400.0 mg/kg/injection, schedule: Q04DX003 (ip), vehicle: saline 103 % of control

CSC(c1ccc(Oc2ccccc2)cc1)=[N+]1CCCCC1
inactive: dose: 9.38 mg/kg/injection, schedule: Q01DX001 (ip), vehicle: steriod suspending solution 105 % of control | dose: 18.75 mg/kg/injection, schedule: Q01DX001 (ip), vehicle: steriod suspending solution 103 % of control | dose: 37.5 mg/kg/injection, schedule: Q01DX001 (ip), vehicle: steriod suspending solution 105 % of control

O=C(COc1ccccc1)NCCBr
inactive: [3] 96 % of control | [8] 110 % of control | dose: 133.0 mg/kg/injection, schedule: Q04DX003 (ip), vehicle: Klucel (hydroxypropylcellulose) (HPC) 98 % of control | [4] 102 % of control | [9] 98 % of control | dose: 300.0 mg/kg/injection, schedule: Q04DX003 (ip), vehicle: Klucel (hydroxypropylcellulose) (HPC) 98 % of control | [5] 95 % of control | [10] 101 % of control
